Laboratory results reported in the kinase profiling compilation of Christmann-Franck et al. (2016).

Assays:
Assay in all cases: KINOMEscan competition binding
Details in all cases: compound 10.0 µM
ACVR2B (human) = ACVR2B (human) (UniProt Q13705)
BMPR1A (human) = BMPR1A (human) (UniProt P36894)
CDC2L2 (human) = CDC2L2 (human) (UniProt Q9UQ88)
CDC42BPB (human) = CDC42BPB (human) (UniProt Q9Y5S2)
CDK15 (human) = CDK15 (human) (UniProt Q96Q40)
CDK8 (human) = CDK8 (human) (UniProt P49336)
CDKL3 (human) = CDKL3 (human) (UniProt Q8IVW4)
CSNK1D (human) = CSNK1D (human) (UniProt P48730)
CSNK1E (human) = CSNK1E (human) (UniProt P49674)
CSNK1G1 (human) = CSNK1G1 (human) (UniProt Q9HCP0)
CSNK1G3 (human) = CSNK1G3 (human) (UniProt Q9Y6M4)
DAPK2 (human) = DAPK2 (human) (UniProt Q9UIK4)
DYRK2 (human) = DYRK2 (human) (UniProt Q92630)
EPHB6 (human) = EPHB6 (human) (UniProt O15197)
ERBB3 (human) = ERBB3 (human) (UniProt P21860)
FES (human) = FES (human) (UniProt P07332)
FGFR2 (human) = FGFR2 (human) (UniProt P21802)
[1] = tested on: FGFR3 (human), P22607 [G697C]
FLT3 (human) = FLT3 (human) (UniProt P36888)
IRAK3 (human) = IRAK3 (human) (UniProt Q9Y616)
[2] = biological target: JAK1 JH2 pseudokinase (human) (UniProt P23458)
MAP2K3 (human) = MAP2K3 (human) (UniProt P46734)
MAP3K2 (human) = MAP3K2 (human) (UniProt Q9Y2U5)
MELK (human) = MELK (human) (UniProt Q14680)
MKNK2 (human) = MKNK2 (human) (UniProt Q9HBH9)
MST4 (human) = MST4 (human) (UniProt Q9P289)
OXSR1 (human) = OXSR1 (human) (UniProt O95747)
PAK7 (human) = PAK7 (human) (UniProt Q9P286)
PDGFRB (human) = PDGFRB (human) (UniProt P09619)
PIK3CB (human) = PIK3CB (human) (UniProt P42338)
PIM1 (human) = PIM1 (human) (UniProt P11309)
PRKACB (human) = PRKACB (human) (UniProt P22694)
PRKCD (human) = PRKCD (human) (UniProt Q05655)
PTK6 (human) = PTK6 (human) (UniProt Q13882)
RIOK2 (human) = RIOK2 (human) (UniProt Q9BVS4)
RIPK4 (human) = RIPK4 (human) (UniProt P57078)
RPS6KA3 KD1 (human) = RPS6KA3 KD1 (human) (UniProt P51812)
SYK (human) = SYK (human) (UniProt P43405)
TNK1 (human) = TNK1 (human) (UniProt Q13470)
TTK (human) = TTK (human) (UniProt P33981)

Chain of MAP3K2 (human) (Q9Y2U5 whole entry, looked up): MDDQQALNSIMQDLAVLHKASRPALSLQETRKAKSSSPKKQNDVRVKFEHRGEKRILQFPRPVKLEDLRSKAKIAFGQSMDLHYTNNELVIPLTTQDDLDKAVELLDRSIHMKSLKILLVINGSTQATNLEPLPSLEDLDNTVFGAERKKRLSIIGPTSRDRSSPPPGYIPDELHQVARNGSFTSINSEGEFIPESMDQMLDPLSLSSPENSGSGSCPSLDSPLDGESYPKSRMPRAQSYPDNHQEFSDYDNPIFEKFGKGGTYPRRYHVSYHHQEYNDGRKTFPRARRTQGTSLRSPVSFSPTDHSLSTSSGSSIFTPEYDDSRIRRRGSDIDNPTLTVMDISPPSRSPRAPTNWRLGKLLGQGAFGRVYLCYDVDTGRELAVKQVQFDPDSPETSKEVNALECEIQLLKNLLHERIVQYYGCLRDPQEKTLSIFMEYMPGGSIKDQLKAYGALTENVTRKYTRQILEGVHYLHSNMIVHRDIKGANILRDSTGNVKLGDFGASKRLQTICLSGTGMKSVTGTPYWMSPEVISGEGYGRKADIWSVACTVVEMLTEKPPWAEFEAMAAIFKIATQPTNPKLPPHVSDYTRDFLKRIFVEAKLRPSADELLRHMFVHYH
Chain of FGFR3 (human), P22607 [G697C] (P22607 whole entry G697C, looked up): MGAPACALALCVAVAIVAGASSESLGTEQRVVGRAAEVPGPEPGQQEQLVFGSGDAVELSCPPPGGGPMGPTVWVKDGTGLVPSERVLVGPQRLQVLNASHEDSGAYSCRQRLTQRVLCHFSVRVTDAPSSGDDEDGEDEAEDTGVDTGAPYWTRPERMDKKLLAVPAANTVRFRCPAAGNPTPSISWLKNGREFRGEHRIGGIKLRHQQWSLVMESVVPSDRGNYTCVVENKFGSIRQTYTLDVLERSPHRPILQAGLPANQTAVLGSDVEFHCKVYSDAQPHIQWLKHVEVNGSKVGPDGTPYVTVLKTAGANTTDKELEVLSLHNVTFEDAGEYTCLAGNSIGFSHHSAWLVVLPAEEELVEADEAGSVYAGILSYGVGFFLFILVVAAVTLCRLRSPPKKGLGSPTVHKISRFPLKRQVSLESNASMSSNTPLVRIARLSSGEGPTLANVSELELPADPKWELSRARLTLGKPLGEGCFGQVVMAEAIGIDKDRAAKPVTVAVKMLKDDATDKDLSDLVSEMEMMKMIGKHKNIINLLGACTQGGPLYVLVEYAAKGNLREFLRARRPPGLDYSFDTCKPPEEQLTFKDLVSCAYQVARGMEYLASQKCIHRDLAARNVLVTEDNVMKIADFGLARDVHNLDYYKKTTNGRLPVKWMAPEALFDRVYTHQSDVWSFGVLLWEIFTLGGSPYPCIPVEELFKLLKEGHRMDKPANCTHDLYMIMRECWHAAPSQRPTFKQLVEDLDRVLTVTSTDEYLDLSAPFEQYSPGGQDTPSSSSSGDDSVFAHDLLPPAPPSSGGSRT
Chain of PIM1 (human) (P11309 whole entry, looked up): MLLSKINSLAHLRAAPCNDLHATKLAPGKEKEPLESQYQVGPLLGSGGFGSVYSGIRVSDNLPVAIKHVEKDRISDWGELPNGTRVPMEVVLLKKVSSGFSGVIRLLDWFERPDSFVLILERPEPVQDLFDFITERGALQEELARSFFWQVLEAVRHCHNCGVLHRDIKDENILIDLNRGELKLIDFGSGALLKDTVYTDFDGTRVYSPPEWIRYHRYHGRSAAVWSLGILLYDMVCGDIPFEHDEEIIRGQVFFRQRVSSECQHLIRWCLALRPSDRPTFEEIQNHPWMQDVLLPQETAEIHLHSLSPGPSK
Chain of CDC42BPB (human) (Q9Y5S2 whole entry, looked up): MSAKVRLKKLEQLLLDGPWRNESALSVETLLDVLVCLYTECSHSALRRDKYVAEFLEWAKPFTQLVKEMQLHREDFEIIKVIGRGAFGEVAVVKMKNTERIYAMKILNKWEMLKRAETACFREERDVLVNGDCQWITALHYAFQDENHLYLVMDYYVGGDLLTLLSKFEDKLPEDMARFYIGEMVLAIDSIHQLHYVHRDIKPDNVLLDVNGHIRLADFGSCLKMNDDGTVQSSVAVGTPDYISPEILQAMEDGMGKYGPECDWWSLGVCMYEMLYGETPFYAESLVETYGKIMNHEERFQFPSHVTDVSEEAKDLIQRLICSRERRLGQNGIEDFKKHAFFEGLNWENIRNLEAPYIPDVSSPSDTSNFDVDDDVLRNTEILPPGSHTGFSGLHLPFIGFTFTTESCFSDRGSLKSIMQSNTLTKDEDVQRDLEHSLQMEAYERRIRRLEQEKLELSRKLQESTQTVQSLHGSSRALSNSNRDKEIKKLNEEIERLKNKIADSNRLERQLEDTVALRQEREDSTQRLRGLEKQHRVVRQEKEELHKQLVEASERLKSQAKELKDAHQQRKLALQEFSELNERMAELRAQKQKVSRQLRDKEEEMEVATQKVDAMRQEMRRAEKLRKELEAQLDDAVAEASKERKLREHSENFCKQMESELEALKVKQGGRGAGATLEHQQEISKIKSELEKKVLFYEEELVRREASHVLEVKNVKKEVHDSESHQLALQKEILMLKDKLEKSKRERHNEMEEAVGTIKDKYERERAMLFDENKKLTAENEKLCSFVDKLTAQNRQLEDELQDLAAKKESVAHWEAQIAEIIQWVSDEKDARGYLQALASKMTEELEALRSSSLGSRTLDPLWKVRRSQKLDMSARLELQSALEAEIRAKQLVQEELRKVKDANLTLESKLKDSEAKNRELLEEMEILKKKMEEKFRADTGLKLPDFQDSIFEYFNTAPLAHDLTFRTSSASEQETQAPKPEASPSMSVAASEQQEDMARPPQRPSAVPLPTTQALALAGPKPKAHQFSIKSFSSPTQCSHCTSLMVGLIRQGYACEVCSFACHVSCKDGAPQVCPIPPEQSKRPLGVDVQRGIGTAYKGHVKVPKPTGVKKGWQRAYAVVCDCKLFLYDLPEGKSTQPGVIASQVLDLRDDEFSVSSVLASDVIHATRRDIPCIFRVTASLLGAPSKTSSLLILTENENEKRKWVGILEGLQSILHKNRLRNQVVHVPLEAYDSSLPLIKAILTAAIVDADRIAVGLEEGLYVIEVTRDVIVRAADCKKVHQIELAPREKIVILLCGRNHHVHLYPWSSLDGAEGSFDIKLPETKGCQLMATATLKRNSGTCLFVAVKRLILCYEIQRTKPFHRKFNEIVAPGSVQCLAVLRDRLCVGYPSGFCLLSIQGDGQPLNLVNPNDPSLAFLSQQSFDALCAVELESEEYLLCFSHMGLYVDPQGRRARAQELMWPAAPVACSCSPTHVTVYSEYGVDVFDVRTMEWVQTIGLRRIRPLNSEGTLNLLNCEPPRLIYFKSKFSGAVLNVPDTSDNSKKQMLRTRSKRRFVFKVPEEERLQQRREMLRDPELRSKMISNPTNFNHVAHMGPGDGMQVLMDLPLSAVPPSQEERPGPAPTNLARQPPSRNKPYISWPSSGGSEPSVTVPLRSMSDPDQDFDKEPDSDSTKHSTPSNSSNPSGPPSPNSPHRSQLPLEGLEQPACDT
Chain of CDKL3 (human) (Q8IVW4 whole entry, looked up): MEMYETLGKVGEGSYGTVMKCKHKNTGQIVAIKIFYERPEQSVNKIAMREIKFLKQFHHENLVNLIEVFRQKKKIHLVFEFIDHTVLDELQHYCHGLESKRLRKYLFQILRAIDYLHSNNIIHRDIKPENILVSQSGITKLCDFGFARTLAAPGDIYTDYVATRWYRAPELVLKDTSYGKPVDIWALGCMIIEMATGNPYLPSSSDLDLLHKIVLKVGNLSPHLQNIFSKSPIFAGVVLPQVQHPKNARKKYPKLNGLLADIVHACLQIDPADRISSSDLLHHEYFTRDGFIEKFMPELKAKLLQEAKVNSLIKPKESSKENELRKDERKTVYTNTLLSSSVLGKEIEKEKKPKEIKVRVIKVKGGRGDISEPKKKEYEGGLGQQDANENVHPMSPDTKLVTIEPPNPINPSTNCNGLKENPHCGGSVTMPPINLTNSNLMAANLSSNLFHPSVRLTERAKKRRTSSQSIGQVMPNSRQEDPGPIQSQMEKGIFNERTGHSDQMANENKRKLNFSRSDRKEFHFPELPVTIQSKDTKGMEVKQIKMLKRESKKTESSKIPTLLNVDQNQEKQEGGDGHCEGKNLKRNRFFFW
Chain of CSNK1G1 (human) (Q9HCP0 whole entry, looked up): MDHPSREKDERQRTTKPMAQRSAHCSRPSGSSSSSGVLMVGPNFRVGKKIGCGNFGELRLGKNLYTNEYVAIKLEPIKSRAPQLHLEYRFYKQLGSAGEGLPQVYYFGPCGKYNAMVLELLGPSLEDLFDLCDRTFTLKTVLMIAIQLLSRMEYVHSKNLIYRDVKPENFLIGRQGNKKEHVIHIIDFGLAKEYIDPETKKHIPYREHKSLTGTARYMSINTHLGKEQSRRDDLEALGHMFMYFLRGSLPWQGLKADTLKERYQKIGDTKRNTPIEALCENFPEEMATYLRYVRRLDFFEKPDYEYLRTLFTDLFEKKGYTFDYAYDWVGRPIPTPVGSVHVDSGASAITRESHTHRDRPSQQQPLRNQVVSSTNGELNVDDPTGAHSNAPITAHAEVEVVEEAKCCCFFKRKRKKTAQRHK
Chain of CSNK1G3 (human) (Q9Y6M4 whole entry, looked up): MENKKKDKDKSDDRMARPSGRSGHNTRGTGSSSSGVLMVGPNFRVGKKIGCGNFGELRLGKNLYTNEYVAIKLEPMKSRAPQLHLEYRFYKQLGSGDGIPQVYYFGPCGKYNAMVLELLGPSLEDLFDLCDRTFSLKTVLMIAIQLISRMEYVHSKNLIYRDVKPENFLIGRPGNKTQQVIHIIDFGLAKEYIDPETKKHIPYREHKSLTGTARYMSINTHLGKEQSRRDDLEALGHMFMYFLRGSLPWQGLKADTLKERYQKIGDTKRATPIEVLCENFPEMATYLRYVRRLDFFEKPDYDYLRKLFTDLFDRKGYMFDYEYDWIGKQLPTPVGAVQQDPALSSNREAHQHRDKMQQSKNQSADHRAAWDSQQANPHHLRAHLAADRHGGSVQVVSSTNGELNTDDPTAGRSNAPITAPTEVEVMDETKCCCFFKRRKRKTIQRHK

| Structure (SMILES) | kinase still bound, per cent of control (ACVR2B (human)) [%] | kinase still bound, per cent of control (BMPR1A (human)) [%] | kinase still bound, per cent of control (CDC2L2 (human)) [%] | kinase still bound, per cent of control (CDC42BPB (human)) [%] | kinase still bound, per cent of control (CDK15 (human)) [%] | kinase still bound, per cent of control (CDK8 (human)) [%] | kinase still bound, per cent of control (CDKL3 (human)) [%] | kinase still bound, per cent of control (CSNK1D (human)) [%] | kinase still bound, per cent of control (CSNK1E (human)) [%] | kinase still bound, per cent of control (CSNK1G1 (human)) [%] | kinase still bound, per cent of control (CSNK1G3 (human)) [%] | kinase still bound, per cent of control (DAPK2 (human)) [%] | kinase still bound, per cent of control (DYRK2 (human)) [%] | kinase still bound, per cent of control (EPHB6 (human)) [%] | kinase still bound, per cent of control (ERBB3 (human)) [%] | kinase still bound, per cent of control (FES (human)) [%] | kinase still bound, per cent of control (FGFR2 (human)) [%] | kinase still bound, per cent of control [1] [%] | kinase still bound, per cent of control (FLT3 (human)) [%] | kinase still bound, per cent of control (IRAK3 (human)) [%] | other results |
| --- | --- | --- | --- | --- | --- | --- | --- | --- | --- | --- | --- | --- | --- | --- | --- | --- | --- | --- | --- | --- | --- |
| CCN1CCN(Cc2ccc(NC(=O)c3ccc(C)c(/C=C/c4cnc5[nH]ccc5c4OC)c3)cc2C(F)(F)F)CC1 | 62 | 76 | 5.4 | 65 | 36 | 21 | 4 | 38 | 45 | 98 | 48 | 100 | 78 | 1.8 | 100 | 0.2 | 3.7 | 2.5 | 0.95 | 65 | kinase still bound, per cent of control [2]: 41%; kinase still bound, per cent of control (MAP2K3 (human)): 68%; kinase still bound, per cent of control (MAP3K2 (human)): 0.65%; kinase still bound, per cent of control (MELK (human)): 20%; kinase still bound, per cent of control (MKNK2 (human)): 2.7%; kinase still bound, per cent of control (MST4 (human)): 18%; kinase still bound, per cent of control (OXSR1 (human)): 74%; kinase still bound, per cent of control (PAK7 (human)): 100%; kinase still bound, per cent of control (PDGFRB (human)): 0.05%; kinase still bound, per cent of control (PIK3CB (human)): 100%; kinase still bound, per cent of control (PIM1 (human)): 100%; kinase still bound, per cent of control (PRKACB (human)): 100%; kinase still bound, per cent of control (PRKCD (human)): 49%; kinase still bound, per cent of control (PTK6 (human)): 9.6%; kinase still bound, per cent of control (RIOK2 (human)): 19%; kinase still bound, per cent of control (RIPK4 (human)): 56%; kinase still bound, per cent of control (RPS6KA3 KD1 (human)): 14%; kinase still bound, per cent of control (SYK (human)): 7.2%; kinase still bound, per cent of control (TNK1 (human)): 1.4%; kinase still bound, per cent of control (TTK (human)): 6.8% |
| C=CC(=O)Nc1ccc(C(=O)c2sc(Nc3ccc(N4CCN(C)CC4)cc3OC)nc2N)cc1 | 100 | 91 | 87 | 100 | 87 | 100 | 100 | 72 | 66 | 18 | 24 | 2.8 | 4.2 | 64 | 93 | 52 | 49 | 77 | 73 | 96 | kinase still bound, per cent of control [2]: 65%; kinase still bound, per cent of control (MAP2K3 (human)): 69%; kinase still bound, per cent of control (MAP3K2 (human)): 68%; kinase still bound, per cent of control (MELK (human)): 87%; kinase still bound, per cent of control (MKNK2 (human)): 29%; kinase still bound, per cent of control (MST4 (human)): 99%; kinase still bound, per cent of control (OXSR1 (human)): 10%; kinase still bound, per cent of control (PAK7 (human)): 71%; kinase still bound, per cent of control (PDGFRB (human)): 54%; kinase still bound, per cent of control (PIK3CB (human)): 86%; kinase still bound, per cent of control (PIM1 (human)): 90%; kinase still bound, per cent of control (PRKACB (human)): 92%; kinase still bound, per cent of control (PRKCD (human)): 100%; kinase still bound, per cent of control (PTK6 (human)): 80%; kinase still bound, per cent of control (RIOK2 (human)): 53%; kinase still bound, per cent of control (RIPK4 (human)): 89%; kinase still bound, per cent of control (RPS6KA3 KD1 (human)): 9.6%; kinase still bound, per cent of control (SYK (human)): 100%; kinase still bound, per cent of control (TNK1 (human)): 22%; kinase still bound, per cent of control (TTK (human)): 0.7% |
